In patent publication US20240099989A1, “AGENT FOR PREVENTING OR IMPROVING PERIPHERAL NEUROPATHY” (KINKI UNIVERSITY, priority 2021, published 2024):
Read-outs that look alike come from different tables or passages of the source.

Tests used:
[1] = system: Peripheral Neuropathy in a Mouse Caused by Paclitaxel; assay type: in vivo, Balb/c mice
Text: (§1) Six to seven-week-old female Balb/c mice were used for the tests as with Example 1. All the mice were acclimated for seven days after arrival. Then, the mice were grouped into the following four groups: a control group, a group receiving paclitaxel, a group receiving xylitol, and a group receiving paclitaxel and xylitol (a group receiving paclitaxel+xylitol). Each group consisted of five mice.
(§2) On Day 8 of acclimation, the mice in the group receiving paclitaxel and the group receiving paclitaxel+xylitol were intraperitoneally administered with paclitaxel at a dose of 6 mg/kg. This day was designated as the first day of the administration (Day 0). Thereafter, these mice were intraperitoneally administered with paclitaxel at the same dose on Day 7 and Day 14 for a total of 3 doses.
The mice in the group receiving 100 mg/kg xylitol were orally administered with xylitol at a dose of 100 mg/kg daily from Day 0. The mice in the group receiving paclitaxel+100 mg/kg xylitol were orally administered with xylitol at a dose of 100 mg/kg daily from Day 6 of administration.
A test was performed on the mice in the four groups described in (6) of the present example (Example 2) to examine the effect of xylitol on paresthesia that is caused by a low temperature stimulus. The mice in respective groups were placed on a cold plate set at 10° C., and withdrawal response time (latent time) was measured. It is presumed that a shorter latent time reflects a greater degree of shunning the low temperature stimulus by the cold plate. […]
The mice in the group receiving 100 mg/kg D-threitol were orally administered with D-threitol at a dose of 100 mg/kg daily from Day 0. The mice in the group receiving paclitaxel+100 mg/kg D-threitol were orally administered with D-threitol at a dose of 100 mg/kg daily from Day 6 of administration.
A test was performed on the mice in the four groups described in (4) of the present example (Example 4) to examine the effect of D-threitol on paresthesia that is caused by a low temperature stimulus. The mice in respective groups were placed on a cold plate set at 10° C., and withdrawal response time (latent time) was measured. It is presumed that a shorter latent time reflects a greater degree of shunning the low temperature stimulus by the cold plate.
as §1, with “L-talitol,” for “xylitol,”, “L-talitol” for “xylitol”, “paclitaxel+L-talitol).” for “paclitaxel+xylitol).”
(§3) On Day 8 of acclimation, the mice in the group receiving paclitaxel and the group receiving paclitaxel+L-talitol were intraperitoneally administered with paclitaxel at a dose of 6 mg/kg. This day was designated as Day 0 of administration. Thereafter, these mice were intraperitoneally administered with paclitaxel at a daily dose of 6 mg/kg on Day 7 and Day 14.
The mice in the group receiving L-talitol and the group receiving paclitaxel+L-talitol were orally administered with L-talitol at a dose of 5 mg/kg daily from Day 0.
A cold plate test was performed to examine the effect of L-talitol on paresthesia that is caused by a low temperature stimulus. The mice in the four groups described in (4) of the present example (Example 5) were placed on a cold plate set at 10° C., and withdrawal response time (latent time) was measured. It is presumed that a shorter latent time reflects a greater degree of shunning the low temperature stimulus by the cold plate.
On Day 8 of acclimation, the mice in the group receiving paclitaxel and the group receiving paclitaxel+L-talitol were intraperitoneally administered with paclitaxel at a dose of 6 mg/kg. This day was designated as the first day of the administration (Day 0). […]

[2] = system: Peripheral Neuropathy in a Mouse Caused by Bortezomib; assay type: in vivo, Balb/c mice
Text: as §1, with “tests.” for “tests as with Example 1.”, “bortezomib,” for “paclitaxel,”, “bortezomib” for “paclitaxel”, “bortezomib+xylitol).” for “paclitaxel+xylitol).”
as §3, with “bortezomib” for “paclitaxel”, “bortezomib+xylitol” for “paclitaxel+L-talitol”, “1” for “6”
The mice in the group receiving xylitol and the group receiving bortezomib+xylitol were orally administered with xylitol at a dose of 5 mg/kg daily from Day 0.
A cold plate test was performed to examine the effect of xylitol on paresthesia that is caused by a low temperature stimulus. The mice in the four groups described in (10) of the present example (Example 1) were placed on a cold plate set at 10° C., and withdrawal response time (latent time) was measured. It is presumed that a shorter latent time reflects a greater degree of shunning the low temperature stimulus by the cold plate.
as §1, with “bortezomib,” for “paclitaxel,”, “bortezomib” for “paclitaxel”, “bortezomib+xylitol).” for “paclitaxel+xylitol).”
as §2, with “bortezomib” for “paclitaxel”, “bortezomib+xylitol” for “paclitaxel+xylitol”, “1” for “6”
The mice in the group receiving 100 mg/kg xylitol were orally administered with xylitol at a dose of 100 mg/kg daily from Day 0. The mice in the group receiving bortezomib+100 mg/kg xylitol were orally administered with xylitol at a dose of 100 mg/kg daily from Day 6 of administration.
A test was performed on the mice in the four groups described in (12) of the present example (Example 2) to examine the effect of xylitol on paresthesia that is caused by a low temperature stimulus. The mice in respective groups were placed on a cold plate set at 10° C., and withdrawal response time (latent time) was measured. It is presumed that a shorter latent time reflects a greater degree of shunning the low temperature stimulus by the cold plate.
as §1, with “bortezomib,” for “paclitaxel,”, “D-threitol,” for “xylitol,”, “bortezomib” for “paclitaxel”, “D-threitol” for “xylitol”, “bortezomib+D-threitol).” for “paclitaxel+xylitol).”
as §3, with “bortezomib” for “paclitaxel”, “bortezomib+D-threitol” for “paclitaxel+L-talitol”, “1” for “6”
The mice in the group receiving D-threitol and the group receiving bortezomib+D-threitol were orally administered with D-threitol at a dose of 5 mg/kg daily from Day 0.
A cold plate test was performed to examine the effect of D-threitol on paresthesia that is caused by a low temperature stimulus. […]

[3] = 6 mg/kg paclitaxel + 5 mg/kg test substance orally daily from Day 0 (prevention)
[4] = 6 mg/kg paclitaxel + 100 mg/kg orally daily from Day 6, on Day 12, vs group receiving 6 mg/kg paclitaxel
[5] = 1 mg/kg bortezomib + 5 mg/kg test substance orally daily from Day 0 (prevention)
[6] = 1 mg/kg bortezomib + 100 mg/kg orally daily from Day 6, on Day 12, vs group receiving 1 mg/kg bortezomib

SMILES | withdrawal response time (latent time) [1, 3] | withdrawal response time (latent time) [1, 4] | withdrawal response time (latent time) [2, 5] | withdrawal response time (latent time) [2, 6]
OC[C@@H](O)[C@H](O)CO [D-threitol] | approximately similar to that of the control group | significantly longer withdrawal response time | approximately similar to that of the control group | significantly longer withdrawal response time
OC[C@H](O)[C@H](O)[C@H](O)[C@@H](O)CO [L-talitol] | approximately similar to that of the control group | significantly longer withdrawal response time | approximately similar to that of the control group | significantly longer withdrawal response time
OC[C@@H](O)[C@H](O)[C@@H](O)CO [xylitol] | approximately similar to that of the control group | significantly longer withdrawal response time | approximately similar to that of the control group | significantly longer withdrawal response time
